Experiments:
Type in all cases: cell-based, human
ASM (SMase) mRNA = assay: Northern blot of SMase mRNA in HUVECs; conditions: IL-1β 5 ng/ml, 18 h
Procedure: FIG. 24. Northern blot analysis of HUVECs incubated in the absence or presence of IL-1β. HUVECs were incubated for 18 h in DMEM, 0.2% BSA alone (Con) or containing human recombinant interleukin-1β (5 ng/ml) (IL1β).
Northern Blot of SMase mRNA—Total cellular RNA was isolated from HUVECs using RNAzol B (Tel-Test. Inc., Friendswood, Tex.). Approximately 10 μg of RNA was separated on a 1% agarose gel and blotted onto a nylon membrane. The membrane was hybridized in a QuikHyb hybridization solution (Stratagene) with a 1.6-kB EcoRI-XhoI fragment of human ASM cDNA (41) that was labeled with ^32P by the random-priming Procedure (GIBCO-BRL®). The amount of RNA loaded for each condition was normalized using a probe to glyceraldehyde-3-phosphate dehydrogenase. The relative intensities of the mRNA bands were determined by densitometric scanning of the autoradiograms using a Molecular Dynamics Computing Densitometer (model 300A) with Image-Quant software.

HUVECs = assay: LDH release from HUVECs; conditions: IL-1β 5 ng/ml, 18 h
Procedure: HUVECs were incubated for 18 h in DMEM, 0.2% BSA alone (Con) or containing human recombinant interleukin-1β (5 ng/ml) (IL1β). Conditioned media from these cells were then assayed for SMase activity (FIG. 25A) and LDH activity (FIG. 25B).
LDH Assay—LDH activity was assayed in medium and cells as reported previously (42) using a kit purchased from Sigma (catalogue #500); the assay measures the unreacted pyruvic acid using a colorometric assay.

[1] = tested on: mannose-phosphorylated S-SMase of HUVECs; assay: Binding of HUVEC S-SMase to mannose-phosphate receptor column; conditions: conditioned medium of IL-1β-treated HUVECs; Western blot densitometry
Source text: We recently reported that S-SMase is secreted through a Golgi pathway that bypasses the lysosomal pathway of L-SMase. Thus, we considered three general mechanisms to explain how IL-Lβ increases the secretion of SMase: secretion of mannose-phosphorylated SMase during trafficking of the ASM precursor to lysosomes (e.g., due to saturation of the mannose-6-phosphate receptor—cf. Ref. (46)), induction of secretion of intralysosomal SMase (cf. Ref. (47)), or increased trafficking of the ASM precursor protein through the normal Golgi secretory pathway. To begin, we assessed the mannose-phosphorylation state of S-SMase from control and IL-1β-treated HUVECs by passing conditioned media from these cells over a mannose-phosphate receptor column (cf. Ref. (48)). By Western blot analysis quantified by densitometry, only 7.9% of control S-SMase and 4.9% of S-SMase from the cytokine-treated cells bound to the column and could be eluted with mannose-6-phosphate. As a control for this experiment, we have previously shown that the massive secretion of SMase by ASM-transfected CHO cells can be partly explained by secretion of mannose-phosphorylated SMase due to saturation of the mannose-6-phosphate receptor^2; when conditioned medium from these cells was passed over the receptor column, 40.3% bound and could be eluted with mannose-6-phosphate. […]

S-SMase of HUVECs = assay: Immunoblot of S-SMase from conditioned medium of HUVECs; conditions: conditioned medium of IL-1β-treated HUVECs
Procedure: FIG. 26. Immunoblot analysis of L- and S-SMase from control and IL-1β-treated HUVECs. HUVECs were incubated for 18 h in DMEM, 0.2% BSA alone (Con) or containing human recombinant interleukin-1β (5 ng/ml) (IL1β). SMase was partially purified from the cell homogenates and conditioned media of these cells, and then aliquots derived from equivalent numbers of cells were subjected to immunoblot analysis. Specifically, conditioned medium from control and IL-1(-treated cells yielded 256.0 and 262.5 μg of concanavalin A eluate protein, of which 60.8 μg and 60.0 μg aliquots were loaded onto the SDS-PAGGE gel, respectively. Cell homogenates from control and IL-1β-treated cells yielded 168.1 and 160.6 μg of DEAE flow-through protein, of which 59.5 μg and 60.0 μg aliquots were loaded onto the SDS-PAGGE gel, respectively. No band at the molecular weight of L-SMase was visible in conditioned media (right-hand panels), even when overexposed.
Partial Purification of L- and S-SMase from HUVECs—A modification of previously published procedures (39) was used. Cells were scraped in ice-cold 40 mM Tris-HCl, 0.1 mM ZnCl2, 0.1% NP-40, pH 7.2 (Buffer A), disrupted by sonication on ice using three 5-second bursts (Branson 450 Sonifier) and centrifuged at 100,000×g for one hour. […]

**Q.** Which results are given for IL-1β: human recombinant interleukin-1β?
**A.** increase in SMase mRNA normalized for GAPDH mRNA (ASM (SMase) mRNA): ~40%; increase in LDH release (HUVECs): 60%; S-SMase bound to mannose-phosphate receptor column and eluted with mannose-6-phosphate [1]: 4.9%; increase of higher-Mr S-SMase by densitometry of immunoblot (S-SMase of HUVECs): approximately two-fold

— patent US6613322B2, “Method for treating a subject suffering from conditions associated with an extracellular zinc sphingomyelinase” (The Trustees of Columbia University in the City of New York, priority 1997, dated 2003)
